Results on 7 molecules are retold here after patent US20240209022A1, “NOVEL PEPTIDE HAVING ANTI-INFLAMMATORY AND TISSUE REGENERATIVE ACTIONS” (KOREA RESEARCH INSTITUTE OF BIOSCIENCE AND BIOTECHNOLOGY, priority 2020, published 2024).

Holding throughout (type): in vivo, C57BL/6J mice
The test system of experiment [1] is depression and anxiety model. Description: LPS-induced depression and anxiety model (TST, FST, EPM). Conditions: vs PBS buffer group; for Ifnγ mRNA expression in brain tissue (hippocampus) / Il-10 mRNA expression in brain tissue (hippocampus): RT-qPCR; for immobility time in forced swim test / immobility time in tail suspension test: oral, LPS-induced. The method, then:
By Daehan Biolink, 7-week-old male C57BL/6J mice weighing 20-22 g were supplied, and the animals were sufficiently supplied with solid feed and water until the day of the experiment, acclimatized for 1 week while maintaining an environment with a temperature of 22° C. 2° C., a humidity of 55%±15%, and a 12-hour light/dark cycle, and then used in the experiment. From 3 days before inducing depression and anxiety, the peptide was dissolved in PBS buffer and orally administered to the mice by 150 μL per animal at the same time once a day. Amuc_1409 or PEP001, PEP002, PEP003, PEP004, or PEP005 was dissolved in PBS buffer at a concentration of 6.7 μM and then used, and novel tetrapeptides PEP006, PEP007, PEP008, PEP009, and PEP010 and novel tripeptides PEP011, PEP012, and PEP013 were each dissolved in PBS buffer at a concentration of 0.2 μg/150 μL and then used. On the 3rd day of peptide administration, lipopolysaccharide (LPS) dissolved in PBS buffer was intraperitoneally injected at a concentration of 0.8 mg/kg to induce depression and anxiety. Tail suspension test (TST) and forced swim test (FST) were conducted to analyze the effect on depression. As the TST, a tail suspension device was installed in an open white acrylic box of 20 cm×25 cm×30 cm size, and the mouse was suspended upside down at a height where the mouse's tail would not touch the floor, and then the time for which the mouse maintained immobility while observing in the same environment was measured for 6 minutes. […] Water at around 25° C. was filled in a transparent acrylic cylinder (45 cm depth×18 cm diameter) up to 30 cm from the bottom, the mouse was exposed to water, and the time for which the mouse maintained immobility while swimming was measured for 6 minutes. […] An elevated plus-maze (EPM) test was performed to analyze the effect on anxiety level. The EPM device consists of two open arms (50 cm×10 cm) and two […] (50 cm×10 cm) at a height of 50 cm from the floor, and the arms are connected by a central area of 10 cm×10 cm. At the start of the experiment, the mouse was placed in the center of the maze and the time for which the mouse stayed in the open arm was measured for a total of 5 minutes using a video camera, and the percentage of time spent in the open arm was calculated and recorded [(time spent in open arm/time spent in open and closed arms)×100]. In addition, in order to examine the anti-inflammatory activity according to the administration of Amuc_1409 and PEP001, PEP002, PEP003, PEP004, and PEP005 in an animal model of depression and anxiety, the expression of Ifnγ and Il-10 mRNA, which are major inflammatory genes related to depression, in brain tissue (hippocampus) was examined.
(Real-time PCR tracks product formation cycle by cycle.)

The subject of experiment [2] is gastritis/gastric ulcer model. Description: HCl/ethanol gastritis/gastric ulcer model. The following applies: vs PBS buffer group; for degree of gastric mucosal damage (score): oral, 1 hour after HCl/ethanol. As for the experimental part:
For a gastritis/gastric ulcer model, 7-week-old male C57BL/6J mice were used, and from 3 days before induction, the peptides of the present invention were dissolved in PBS buffer and then orally administered to the mice by 150 μL per animal at the same time once a day. Amuc_1409 or PEP001, PEP002, PEP003, PEP004, or PEP005 was dissolved in PBS buffer at a concentration of 6.7 μM, and novel tetrapeptides PEP006, PEP007, PEP008, PEP009, and PEP010 and novel tripeptides PEP011, PEP012, and PEP013 were each dissolved in PBS buffer at a concentration of 0.15 μg/150 μL (PEP006) or 0.2 μg/150 μL (PEP007, PEP008, PEP009, PEP010, PEP011, PEP012, and PEP013). For the induction of acute gastritis/gastric ulcer, 0.3 M HCl/60% ethanol was orally administered to the mice by 0.2 mL for each, the tissue was harvested after 1 hour, photographs of the inner surface of the stomach were taken, and the degree of damage to the stomach was compared. Measurements of gastritis/gastric ulcer indexes were converted into scores according to the degree of mucosal damage. A score of 0 was given if there was no damage, a score of 1 was given to an insignificant circle-shaped hemorrhagic corrosion site of less than 5 mm, a score of 2 was given to a hemorrhagic corrosion site with a length more than 5 mm, and a score of 3 was given to one or more hemorrhagic corrosion sites corresponding to the score of 2, a score of 4 was given to a hemorrhagic corrosion of more than 5 mm in length and less than 2 mm in width, a score of 5 was given to 2 to 3 hemorrhagic corrosions corresponding to the score of 4, a score of 6 was given to 4 to 5 hemorrhagic corrosions corresponding to the score of 4, a score of 7 was given to 6 or more hemorrhagic corrosions corresponding to the score of 4, and a score of 8 was given if there was hemorrhagic corrosion throughout the gastric mucosa. In order to confirm additional anti-inflammatory activity of the administered peptides, mRNA expression of inflammation-related genes, Tnfα, Il-1β, iNos, Cox2, and Il-10, in the gastric mucosal tissue was examined.

The test system of experiment [3] is full-thickness skin defect wound-induced model. Description: Full-thickness skin defect wound-induced model (tail). Conditions: 120 μM, 25 μL applied once a day for 28 days; vs vehicle. The method, then: In order to confirm the tissue regeneration efficacy of the novel peptides, an experiment was conducted using a wound-induced model induced by a full-thickness skin defect of mouse's tail. For a full-thickness skin defect wound-induced model, 9-week-old specific pathogen free (SPF) male C57BL/6J mice were anesthetized, and then in order to indicate full-thickness wounding, a full-thickness wound with a size of 10 mm×3 mm was made on the dorsal part of the mouse's tail, about 1.0 cm away from the base of the mouse's tail, using an aseptic dissection mass No. 10. Bleeding was stopped by compressing the wound, and the wound was covered with a film spray dressing (Cavilon, 3M). For 28 days from the day of wound induction, Amuc_1409 or PEP001 to PEP013 were each dissolved in vehicle (50% ethanol, 20% propylene glycol, 30% water) at a concentration of 120 μM and then applied to the wound site by 25 μL per animal once a day. For the control group, the same volume of vehicle (50% ethanol, 20% propylene glycol, 30% water) was applied to the wound site. The test was terminated on day 29 after wound induction. In order to observe the wound healing effect, the wound sites of animals in each test group were individually photographed using a digital camera at a constant height from the wound for 28 days at 7-day intervals from the day of wound induction, and the wound area was measured using the Image J Soft program.

With GAY [PEP005], in experiment [1], the “Ifnγ mRNA expression in brain tissue (hippocampus)” value (“Ifnγ mRNA expression” below) is reported as “significantly decreased”, the “Il-10 mRNA expression in brain tissue (hippocampus)” value is “significantly increased”, the “immobility time in forced swim test” value is “significantly decreased” and the “immobility time in tail suspension test” value is “significantly decreased”. In addition, the “time spent in the open arm, elevated plus-maze test” value (“time spent in the open arm” below) in experiment [1] is on record as “increased”. For the same molecule, in experiment [2] (RT-qPCR), the “Cox2 expression in gastric mucosal tissue” value is “significantly decreased”, the “Il-1p expression in gastric mucosal tissue” value is on record as “significantly decreased”, the “Tnfα mRNA expression in gastric mucosal tissue” value (“Tnfα mRNA expression” below) is recorded as “significantly decreased” and the “iNos mRNA expression in gastric mucosal tissue” value (“iNos mRNA expression” below) is “significantly decreased”. Also, in experiment [2], the “degree of gastric mucosal damage (score)” value is “significantly decreased”. Also, in experiment [3], the wound area result was “significantly decreased” and the “wound size (visually confirmed)” value is “rapidly decreased”.

Take IGAY (PEP008): in experiment [1], the “immobility time in forced swim test” value was “tended to decrease” and the “immobility time in tail suspension test” value is recorded as “decreased”. Also, in experiment [2], the “degree of gastric mucosal damage (score)” value is reported as “decreased to a significant level”. In experiment [3], the wound area result is reported as “significantly decreased” and the “wound size (visually confirmed)” value is “rapidly decreased”.

Regarding KGAY (PEP003), in experiment [1], the “Ifnγ mRNA expression” value was “significantly decreased”, the “Il-10 mRNA expression in brain tissue (hippocampus)” value was “significantly increased”, the “immobility time in forced swim test” value was “significantly decreased” and the “immobility time in tail suspension test” value is “significantly decreased”. In addition, the “time spent in the open arm” value in experiment [1] was “increased”. For the same molecule, in experiment [2] (RT-qPCR), the “Cox2 expression in gastric mucosal tissue” value is “significantly decreased”, the “Il-1p expression in gastric mucosal tissue” value is reported as “significantly decreased”, the “Tnfα mRNA expression” value is recorded as “significantly decreased” and the “iNos mRNA expression” value is reported as “significantly decreased”. In experiment [2], the “degree of gastric mucosal damage (score)” value is reported as “significantly decreased”. In experiment [3], the wound area result is given as “significantly decreased” and the “wound size (visually confirmed)” value is listed as “rapidly decreased”.

For the molecule RGAY (PEP007), in experiment [1], the “immobility time in forced swim test” value is “tended to decrease” and the “immobility time in tail suspension test” value is given as “decreased”. For the same molecule, in experiment [2], the “degree of gastric mucosal damage (score)” value is “decreased to a significant level”. Besides, in experiment [3], the wound area result was “significantly decreased” and the “wound size (visually confirmed)” value is “rapidly decreased”.

Turning to SGAY (PEP009), in experiment [1], the “immobility time in forced swim test” value is “tended to decrease” and the “immobility time in tail suspension test” value is recorded as “decreased”. In addition, the “degree of gastric mucosal damage (score)” value in experiment [2] was “decreased to a significant level”. For the same molecule, in experiment [3], the wound area entry is recorded as “significantly decreased” and the “wound size (visually confirmed)” value is “rapidly decreased”.

Regarding VGAY (PEP010), in experiment [1], the “immobility time in forced swim test” value was “tended to decrease” and the “immobility time in tail suspension test” value is given as “decreased”. In addition, in experiment [2], the “degree of gastric mucosal damage (score)” value was “significantly decreased”. Besides, in experiment [3], the wound area entry was “significantly decreased” and the “wound size (visually confirmed)” value was “rapidly decreased”.

B1: Amuc_1409: SEQ ID NO: 15, functional fragment obtained by eliminating the leader sequence from SEQ ID NO: 14; protein derived from Akkermansia muciniphila (protein)
chain: IPESSVPAAAVSSIKGAYPNAGPIEWDSEMHGMERIYEAEFRINGFQFDVKIAPDGKIVRIKEEIAASSLPEAVRASVLKRYPGCRIKEAEKITEGELVRYKVEVADSRDDYDVLIAPDGNILHVDR
modifications: Amuc_1409_fragment
notes: protein derived from Akkermansia muciniphila
In the case of B1, in experiment [1], the “Ifnγ mRNA expression” value is recorded as “decreased”, the “Il-10 mRNA expression in brain tissue (hippocampus)” value is listed as “increased”, the “immobility time in forced swim test” value was “significantly decreased” and the “immobility time in tail suspension test” value is recorded as “significantly decreased”. Also, the “time spent in the open arm” value in experiment [1] is given as “increased”. Further, in experiment [2] (RT-qPCR), the “Il-10 mRNA expression in gastric mucosal tissue” value is recorded as “increased”, the “Tnfα mRNA expression” value is “significantly decreased” and the “iNos mRNA expression” value was “significantly decreased”. For the same molecule, the “degree of gastric mucosal damage (score)” value in experiment [2] is recorded as “significantly decreased”. In addition, in experiment [3], the wound area entry is on record as “significantly decreased” and the “wound size (visually confirmed)” value is “rapidly decreased”.
